For 19 compounds, IC50 results are on record in US10266535B2, “Inhibitor of FLT3 kinase and use thereof” (HEFEI INSTITUTES OF PHYSICAL SCIENCE, CHINESE ACADEMY OF …, priority 2015, dated 2019).

pIC50: −log10 of the molar value. Counter-ions that a name gives are not always drawn. Like-named read-outs stand apart in the source and are kept apart here. Some results are limits rather than exact numbers.

The subject of assay [1] is MV4-11 (expressing FLT3/ITD mutant gene). Put plainly: Cell proliferation, Cell Titer-Glo, MV4-11. In kind it is cell-based. The following applies: Homo sapiens; for pIC50: MV4-11, incubated for 72 hours, read-out: MV4-11 IC50. The protocol:
(§1) The above cell lines were constructed by our laboratory.
(§2) The number of viable cells was determined by quantification of ATP in living cells using the Cell Titer-Glo® (Promega, USA) chemiluminescence cell viability assay kit.
A general note: ATP-based viability assays read luminescence as a measure of living cells.

The test system of a further assay is pro-B cell BaF3. Put plainly: Cell proliferation, Cell Titer-Glo, BaF3. In kind it is cell-based. The note with it: Mus musculus, incubated for 72 hours. On the procedure: as §1, §2
The test system of assay [2] is TEL-BaF3-FLT3/ITD (stably expressing FLT3/ITD mutant activated kinase). The assay can be described thus: Cell proliferation, Cell Titer-Glo, TEL-BaF3-FLT3/ITD. The following applies: for pIC50: incubated for 72 hours, read-out: TEL-BaF3-FLT3/ITD IC50. In kind it is cell-based, mouse. On the procedure:
as §1, §2

Assay [3] deals with MOLM-13 (expressing FLT3/ITD mutant gene and wild-type FLT3 gene). Put plainly: Cell proliferation, Cell Titer-Glo, MOLM-13. It is filed as cell-based. The note with it: Homo sapiens, MOLM-13; incubated for 72 hours; read-out: MOLM-13 IC50. On the procedure:
as §1, §2

In assay [4] the test system is U937 (expressing wild-type FLT3 gene). Put plainly: Cell proliferation, Cell Titer-Glo, U937. In kind it is cell-based, human. The following applies: Homo sapiens, U-937, 72 h, incubated for 72 hours; read-out: U937 IC50. On the procedure: as §1, §2

For `NCCCCC(=O)N1CCC[C@@H](n2nc(-c3ccc(Oc4ccccc4)cc3)c3c(N)ncnc32)C1` [Compound 62], the pIC50 was 6.42 in assay [1]; 5.07 in the assay on pro-B cell BaF3; 6.39 in assay [2] (Mus musculus, 72 h); 5.92 in assay [3].
`C[C@@H](N)C(=O)N1CCC[C@@H](n2nc(-c3ccc(Oc4ccccc4)cc3)c3c(N)ncnc32)C1` [Compound 24, (R)-2-amino-1-((R)-3-(4-amino-(4-phenoxyphenyl)-1H-pyrazolo[3,4-d]pyrimidin-1-yl)piperidin-1-yl)propan-1-one]: the pIC50 in assay [4] was 5.11; in assay [2], 6.17.
With `CC(C)C[C@@H](N)C(=O)N1CCC(n2nc(-c3ccc(Oc4ccccc4)cc3)c3c(N)ncnc32)CC1` [Compound 74, (R)-2-amino-1-(4-(4-amino-(4-phenoxyphenyl)-1H-pyrazolo[3,4-d]pyrimidin-1-yl)piperidin-1-yl)-4-methylpentan-1-one], the pIC50 in the assay on pro-B cell BaF3 is 6.23; in assay [2] (Mus musculus, 72 h) it was 7.12.
In the case of `Nc1ncnc2c1c(-c1ccc(Oc3ccccc3)cc1)nn2[C@@H]1CCCN(S(=O)(=O)C(F)(F)F)C1` [Compound 3, (R)-3-(4-phenoxyphenyl)-1-(1-((trifluoromethyl)sulfonyl)piperidin-3-yl)-1H-pyrazolo[3,4-d]pyrimidin-4-amine], the pIC50 is less than 5.00 in assay [4] and 5.74 in assay [2] (Mus musculus, 72 h).
On to `Nc1ncnc2c1c(-c1ccc(Oc3ccccc3)cc1)nn2[C@@H]1CCCN(C(=O)C2CCNCC2)C1` [Compound 19, (R)-(3-(4-amino-(4-phenoxyphenyl)-1H-pyrazolo[3,4-d]pyrimidin-1-yl)piperidin-1-yl)-4-piperidinmethanone], for which the pIC50 was less than 5.00 in assay [4] and 6.10 in assay [2] (Mus musculus, 72 h).
`CC(C)C[C@@H](O)C(=O)N1CCC[C@@H](n2nc(-c3ccc(Oc4ccccc4)cc3)c3c(N)ncnc32)C1` [Compound 61, (R)-1-((R)-3-(4-amino-(4-phenoxyphenyl)-1H-pyrazolo[3,4-d]pyrimidin-1-yl)piperidin-1-yl)-2-hydroxyl-4-methylpentan-1-one]: the pIC50 in assay [1] is 6.02; in the assay on pro-B cell BaF3, 5.14; in assay [2] (Mus musculus, 72 h), 6.32; in assay [3], 5.67.
In the case of `CN(C)CC(=O)N1CCC(n2nc(-c3ccc(Oc4ccccc4)cc3)c3c(N)ncnc32)CC1` [Compound 72, 1-(4-(4-amino-(4-phenoxyphenyl)-1H-pyrazolo[3,4-d]pyrimidin-1-yl)piperidin-1-yl)-2-(dimethylamino)ethanone], the pIC50 in the assay with pro-B cell BaF3 is 5.44; in assay [2] (Mus musculus, 72 h) it was 7.12.
In the case of `Nc1ccc(C(=O)N2CCC[C@@H](n3nc(-c4ccc(Oc5ccccc5)cc4)c4c(N)ncnc43)C2)cn1` [Compound 17, (R)-(3-(4-amino-(4-phenoxyphenyl)-1H-pyrazolo[3,4-d]pyrimidin-1-yl)piperidin-1-yl)(6-aminopyridin-3-yl)methanone], the pIC50 is less than 5.00 in assay [4] and 6.06 in assay [2] (Mus musculus, 72 h).
On the same counts, the results for `COC(=O)c1ccc(C(=O)N2CCC[C@@H](n3nc(-c4ccc(Oc5ccccc5)cc4)c4c(N)ncnc43)C2)cc1` [Compound 16, (R)-methyl 4-(3-(4-amino-(4-phenoxyphenyl)-1H-pyrazolo[3,4-d]pyrimidin-1-yl)piperidine-1-carbonyl)benzoate] are less than 5.00 and 5.22.
As to `NC(=O)CC[C@H](N)C(=O)N1CCC[C@@H](n2nc(-c3ccc(Oc4ccccc4)cc3)c3c(N)ncnc32)C1` [Compound 56], the pIC50 in assay [1] is 6.62; in the assay on pro-B cell BaF3, less than 5.00; in assay [2] (Mus musculus, 72 h), 6.31; in assay [3], 6.15.
As for `Nc1ncnc2c1c(-c1ccc(Oc3ccccc3)cc1)nn2[C@@H]1CCCN(C(=O)c2cccnc2)C1` [Compound 13, (R)-(3-(4-amino-(4-phenoxyphenyl)-1H-pyrazolo[3,4-d]pyrimidin-1-yl)piperidin-1-yl)(pyridin-3-yl)methanone], the pIC50 in assay [4] was less than 5.00; in assay [2] (Mus musculus, 72 h), 6.35.
In the case of `Nc1ncc(C(=O)N2CCC[C@@H](n3nc(-c4ccc(Oc5ccccc5)cc4)c4c(N)ncnc43)C2)cn1` [Compound 21, (R)-(3-(4-amino-(4-phenoxyphenyl)-1H-pyrazolo[3,4-d]pyrimidin-1-yl)piperidin-1-yl)(2-aminopyrimidin-5-yl)methanone], the pIC50 in assay [4] was less than 5.00; in assay [2] (Mus musculus, 72 h) it was 6.48.
For `CC(C)(C)OC(=O)NCC(=O)N1CC[C@@H](n2nc(-c3ccc(Oc4ccccc4)cc3)c3c(N)ncnc32)C1` [Compound 66, (R)-tert-butyl 2-(3-(4-amino-(4-phenoxyphenyl)-1H-pyrazolo[3,4-d]pyrimidin-1-yl)pyrrolidin-1-yl)-2-oxoethylcarbamate], the pIC50 in assay [1] was 6.14; in the assay on pro-B cell BaF3, 5.20; in assay [2] (Mus musculus, 72 h), 6.80; in assay [3], 5.80.
With `Nc1ncnc2c1c(-c1ccc(Oc3ccccc3)cc1)nn2[C@@H]1CCCN(C(=O)c2ccc3c(c2)OCO3)C1` [Compound 18, (R)-(3-(4-amino-(4-phenoxyphenyl)-1H-pyrazolo[3,4-d]pyrimidin-1-yl)piperidin-1-yl)-(3,4-methylenedioxyphenyl)mathanone], the pIC50 is less than 5.00 in assay [4] and 5.74 in assay [2] (Mus musculus, 72 h).
On the same counts, the results for `Nc1ncnc2c1c(-c1ccc(Oc3ccccc3)cc1)nn2[C@@H]1CCCN(C(=O)c2cncnc2)C1` [Compound 15, (R)-(3-(4-amino-(4-phenoxyphenyl)-1H-pyrazolo[3,4-d]pyrimidin-1-yl)piperidin-1-yl)(pyrimidin-5-yl)methanone] are less than 5.00 and 6.70.
Turning to `CC(C)C[C@@H](N)C(=O)N[C@H]1CC[C@H](n2nc(-c3ccc(Oc4ccccc4)cc3)c3c(N)ncnc32)CC1` (stereo in doubt) [Compound 85, (R)-2-amino-N-(4-(4-amino-3-(4-phenoxyphenyl)-1H-pyrazolo[3,4-d]pyrimidin-1-yl)trans-1,4-cyclohexyl)-4-methylpentanamide hydrochloride], the IC50 in assay [1] (MV4-11, 72 h, read-out: MV4-11 IC50 [μM]) is 0.51 µM; in assay [2] (Mus musculus, 72 h, read-out: TEL-BaF3-FLT3/ITD IC50 [μM], incubated for 72 hours), 0.082 µM. Further, the pIC50 in the assay with pro-B cell BaF3 was 6.02.
`CC(C)(C)OC(=O)NCC(=O)N1CCC[C@@H](n2nc(-c3ccc(Oc4ccccc4)cc3)c3c(N)ncnc32)C1` [Compound 59, (R)-tert-butyl 2-(3-(4-amino-3-(4-phenoxyphenyl)-1H-pyrazolo[3,4-d]pyrimidin-1-yl)piperidin-1-yl)-2-oxoethylcarbamate]: the pIC50 in assay [1] was 6.37; in the assay with pro-B cell BaF3, 5.03; in assay [2] (Mus musculus, 72 h) it was 6.74; in assay [3] it was 6.11.
As for `CS(=O)(=O)N1CCC(n2nc(-c3ccc(Oc4ccccc4)cc3)c3c(N)ncnc32)CC1` [Compound 73, 1-(1-(methylsulfonyl)piperidin-4-yl)-3-(4-phenoxyphenyl)-1H-pyrazolo[3,4-d]pyrimidin-4-amine], the pIC50 was less than 5.00 in the assay with pro-B cell BaF3 and 6.72 in assay [2] (Mus musculus, 72 h).
Turning to `CCCCC(O)C(=O)N1CCC[C@@H](n2nc(-c3ccc(Oc4ccccc4)cc3)c3c(N)ncnc32)C1` (stereo partly drawn) [Compound 63], the pIC50 is 6.46 in assay [1]; 5.33 with pro-B cell BaF3; 6.82 in assay [2] (Mus musculus, 72 h); 6.14 in assay [3].
